This is an account of results in patent US11518763B2 (SCOHIA PHARMA, INC., priority 2018, dated 2022).

For data set [1] the following is noted: amide bond, DMF.
In a further data set the test system is Nqo1 mRNA. Put plainly: Expression of NRF2-downstream gene Nqo1 mRNA in rat kidney and liver after oral administration. The note with it: 17 h, Kidney, male SD rats, 3 mg/kg oral, about 17 hours after administration, read-out: Nqo1 mRNA expression (fold change vs vehicle). Format: in vivo. The method, then:
Test Example 2: Activity of Compound on Expression of NRF2-Downstream Gene in Rat Kidney and Liver
For the NRF2-downstream gene, Nqol mRNA was examined in regard to the expression level in kidney. Compounds were prepared into 0.5% methylcellulose (MC, METOLOSE, Shin-Etsu Chemical Co., Ltd.) suspensions, and were orally administered to male SD rats (CLEA Japan, Inc.) in a dose of 5 mL/kg. About 17 hours after the administration, the rats were euthanized under anesthesia, and their kidneys and livers were collected. By using an extraction kit, QIAsymphony RNA kit (QIAGEN, catalog number 931636) or RNeasy 96 Kit (QIAGEN, catalog number 74182), total RNA was extracted. From the total RNA thus obtained, cDNA was produced by using a cDNA synthesis kit, Superscript IV VIVO Master Mix (Thermo Fisher Scientific, catalog number 11754-250). By using the cDNA thus obtained with Taqman Fast Advanced Master Mix (Thermo Fisher Scientific, catalog number 4444557) or Platinum Quantitative PCR SuperMix (Thermo Fisher Scientific, catalog number 11743-500), and primers and a probe, the sequences of SEQ ID NO:1. SEQ ID NO:2, and SEQ ID NO: 3, which are shown in Table 4, real-time quantitative PCR was conducted with 7900HT Fast Real-Time PCR Systems or ViiA7 Fast Real-Time PCR Systems (Applied Biosystems). The expression level of Nqol mRNA in each organ of the rat to which the vehicle, 0.5% MC solution, was administered is defined as 1, and the variation is shown in Table 5.

Data set [2] concerns the target T1, binding between NRF2 and KEAP1 (biotinylated human KEAP1 protein (Kelch domain), TAMRA-labeled NRF2 peptide) (Homo sapiens, UniProt Q14145).
T1 construct: biotinylated human KEAP1 protein (Kelch domain); biotin (biotinylated)
Kind of data set: Measurement of activity of inhibiting NRF2 binding (NRF2-KEAP1 TR-FRET). The note with it: inhibition rate relative to control at 100 nM test compound; TR-FRET; 60 min at room temperature; read-out: NRF2 binding inhibitory activity (at 100 nM). Background: Time-resolved FRET reads energy transfer from a long-lived donor to a nearby acceptor.

Each structure is given as a SMILES string. Read-outs that look alike come from different tables or passages of the source.

T1 sequence (Q14145 321-609 limits assumed): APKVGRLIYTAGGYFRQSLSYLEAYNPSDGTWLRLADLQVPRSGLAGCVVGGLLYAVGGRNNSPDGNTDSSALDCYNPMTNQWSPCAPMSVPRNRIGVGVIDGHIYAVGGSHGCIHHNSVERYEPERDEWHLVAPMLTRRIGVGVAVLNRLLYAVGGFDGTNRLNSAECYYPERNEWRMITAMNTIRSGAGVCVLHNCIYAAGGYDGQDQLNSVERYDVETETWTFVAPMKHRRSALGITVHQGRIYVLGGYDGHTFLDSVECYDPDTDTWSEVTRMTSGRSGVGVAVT

As to `COC(=O)C(C)(C)C1c2ccc3c(c2)CN(CC3)C(=O)c2c(Cl)cc(cc2Cl)OCCCCn2nnc3c(C)c1ccc32` (centres unmarked), the ring closure, yield of all isomers in data set [1] (from COC(=O)C(C)(C)C(c1ccc2c(c1)CNCC2)c1ccc2c(nnn2CCCCOc2cc(Cl)c(C(=O)O)c(Cl)c2)c1C, HATU/DIPEA, 15.2 mM, 25.0 °C, 4.0 h) turned out to be 47.5%.
`COC(=O)C(C)(C)C1c2ccc3c(c2)CN(CC3)C(=O)c2ccc(cc2)COCCCn2nnc3c(C)c1ccc32` (centres unmarked) returned a ring closure, yield of all isomers in data set [1] (from COC(=O)C(C)(C)C(c1ccc2c(c1)CNCC2)c1ccc2c(nnn2CCCOCc2ccc(C(=O)O)cc2)c1C, HATU, 18.6 mM, 25.0 °C, 4.0 h) of 20.7%.
Consider `COC(=O)C(C)(C)C1c2ccc3c(c2)CN(CC3)C(=O)c2ccc(cc2)CCCCCn2nnc3c(C)c1ccc32` (centres unmarked), for which the ring closure, yield of all isomers in data set [1] (from COC(=O)C(C)(C)C(c1ccc2c(c1)CNCC2)c1ccc2c(nnn2CCCCCc2ccc(C(=O)O)cc2)c1C, HATU, 17.6 mM, 30.0 °C, 19.0 h) came to 12.4%.
Take `Cc1c2ccc3c1nnn3CCCCOc1cc(Cl)c(c(Cl)c1)C(=O)N1CCc3ccc(cc3C1)C2C(C)(C)C(=O)O` (centres unmarked) [Example 65, 2-[18,30-dichloro-32-methyl-20-oxo-15-oxa-8,9,10,21-tetrazahexacyclo[19.5.3.2^16,19.1^3,7.0^6,10.0^24,28]dotriaconta-1(27),3(32),4,6,8,16(31),17,19(30),24(28),25-decaen-2-yl]-2-methylpropanoic acid]: the fold induction at 3 mg/kg in the data set with Nqo1 mRNA was determined as 3.6. Moreover, the inhibition at 0.1 µM in data set [2] is 100%.
In data set [1] (from CCOC(=O)CC(c1ccc2c(c1)CN(C(=O)OC(C)(C)C)CC2)c1ccc2c(nnn2CCCOCc2ccc(C(=O)OC(C)(C)C)cc2)c1C, HATU, 23.0 mM, 25.0 °C, 3.0 h, 2 steps), `CCOC(=O)CC1c2ccc3c(c2)CN(CC3)C(=O)c2ccc(cc2)COCCCn2nnc3c(C)c1ccc32` (centres unmarked) had a ring closure, yield of all isomers of 67.7%.
Compound `COC(=O)C(C)(C)C1c2ccc3c(c2)CN(CC3)C(=O)c2c(C)cc(cc2C)COCCCn2nnc3c(C)c1ccc32` (centres unmarked) came in with a ring closure, yield of all isomers in data set [1] (from COC(=O)C(C)(C)C(c1ccc2c(c1)CNCC2)c1ccc2c(nnn2CCCOCc2cc(C)c(C(=O)O)c(C)c2)c1C, HATU, 30.4 mM, 25.0 °C, 4.0 h) of 29.6%.
On to `Cc1c2ccc3c1nnn3CCCOCc1ccc(c(F)c1)C(=O)N1CCc3ccc(cc3C1)C2CC(=O)O` (racemic) [Example 21, [18-Fluoro-32-methyl-20-oxo-14-oxa-8,9,10,21-tetraazahexacyclo[19.5.3.2^16,19.1^3,7.0^6,10.0^24,28]dotriaconta-1(26),3(32),4,6,8,16,18,24,27,30-decaen-2-yl]acetic acid], for which the fold induction at 3 mg/kg with Nqo1 mRNA was 5. In addition, the inhibition at 0.1 µM in data set [2] was found to be 100%.
Consider `CCOC(=O)CC1c2ccc3c(c2)CN(CC3)C(=O)c2ccc(cc2)CCCCCn2nnc3c(C)c1ccc32` (centres unmarked) [Example 37, Ethyl [32-methyl-20-oxo-8,9,10,21-tetraazahexacyclo[19.5.3.2^16,19.1^3,7.0^6,10.0^24,28]dotriaconta-1(26),3(32),4,6,8,16,18,24,27,30-decaen-2-yl]acetate], for which, in data set [2], the inhibition at 0.1 µM came out at 29%. The ring closure, yield of all isomers in data set [1] (from CCOC(=O)CC(c1ccc2c(c1)CN(C(=O)OC(C)(C)C)CC2)c1ccc2c(nnn2CCCCCc2ccc(C(=O)OC(C)(C)C)cc2)c1C, HATU, 51.2 mM, 25.0 °C, 4.0 h, 2 steps) is 52.4%.
